pEC50: −log10 of the molar value. *1 amine or outer side, *2 acyl side, *3 side chain or, on linkers, in order; H or OH if unused. Where a SMILES comes first, the peptide text is derived from it. Bridges are numbered along the chain shown (N, C = ends). [ ]: non-standard residue; d: D form. The star is where a group is joined. C20 diacid = O=C(O)CCCCCCCCCCCCCCCCCCC(=O)*; γGlu = O=C(O)[C@H](CCC(=O)[*:2])N[*:1]; Hyp = O=C(O)[C@@H]1C[C@@H](O)CN1; NMeI = CC[C@H](C)[C@H](NC)C(=O)O; Sar = CNCC(=O)O
Key:
[1] = Assessment of physical stability (Thioflavin T fibrillation); format: physicochemical; set-up: key: FND = fibrillation not detected; FD = fibrillation detected; conditions: 1 mg/ml, 40° C., ThT; for Fibrillation pH 4.0 (Ac): 50 mM acetate buffer pH 4.0, 96 hours; for Fibrillation pH 7.0 (His): 50 mM histidine buffer pH 7.0, 96 hours; for Fibrillation pH 7.0 (Phos.): 50 mM phosphate buffer pH 7.0, 96 hours
Outline: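 Fibrillation lag-time, in hours, taken where regressions of the initial stable phase and the growth phase intersect. ThT (40 μM) fluorescence monitored at 40 °C for 96 h, 10-min reads each preceded by 300 s mixing. Peptide at 1 mg/ml in 50 mM buffers: phosphate or histidine pH 7.0, acetate pH 4.0.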

[2] = biological target: T1, human calcitonin receptor (hCTR2) (Homo sapiens, UniProt P30988); assay: hCTR2 cAMP assay (AlphaScreen) in COS7 cells; format: cell-based; conditions: cAMP induction, COS7 cells expressing hCTR2; Table 1; read-out: hCTR2 EC50
T1 construct: expressed in transfected cells
T1 sequence (P30988 25-474): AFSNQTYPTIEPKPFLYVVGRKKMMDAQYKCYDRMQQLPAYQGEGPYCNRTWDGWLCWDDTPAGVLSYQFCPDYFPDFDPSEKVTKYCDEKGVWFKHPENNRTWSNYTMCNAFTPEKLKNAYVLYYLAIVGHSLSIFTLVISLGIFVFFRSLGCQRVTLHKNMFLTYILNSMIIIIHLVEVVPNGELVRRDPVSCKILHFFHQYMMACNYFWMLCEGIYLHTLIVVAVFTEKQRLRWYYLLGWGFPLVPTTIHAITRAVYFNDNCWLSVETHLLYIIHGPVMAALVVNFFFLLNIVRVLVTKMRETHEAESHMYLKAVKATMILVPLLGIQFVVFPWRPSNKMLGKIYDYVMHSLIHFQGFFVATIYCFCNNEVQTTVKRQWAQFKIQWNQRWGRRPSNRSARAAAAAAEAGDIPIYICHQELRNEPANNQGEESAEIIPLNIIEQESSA
Outline: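 cAMP induction, read by AlphaScreen after lysis, gives EC50 values via 4PL curve fitting. Peptides were applied at rising concentrations for 15 min at 37 °C, with IBMX and 0.1% casein in HEPES-buffered Tyrode pH 7.4, to COS7 cells (no endogenous RAMPs) stably expressing human CTR2.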

[3] = biological target: T2, human amylin receptor 3 (hAMYR3), hCTR2 co-expressed with hRAMP3 (Homo sapiens, UniProt O60896+P30988); assay: hAMYR3 cAMP assay (AlphaScreen) in COS7 cells; format: cell-based; conditions: cAMP induction, COS7 cells expressing hAMYR3; Table 1; read-out: hAMYR3 EC50
T2 construct: expressed in transfected cells
T2 sequence (P30988 25-474): T1 sequence (P30988 25-474)
T2 sequence (O60896 24-148 partner): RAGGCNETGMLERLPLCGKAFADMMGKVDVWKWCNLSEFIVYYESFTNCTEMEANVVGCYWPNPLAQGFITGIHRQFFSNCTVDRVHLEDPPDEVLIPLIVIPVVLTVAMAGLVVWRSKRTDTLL
Outline: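 EC50 values derive from 4PL curve fits of cAMP (AlphaScreen) in lysates of RAMP-naive COS7 cells stably carrying hCTR2 plus hRAMP3. Peptide dilution series were applied for 15 min at 37 °C in pH 7.4 Tyrode buffer containing 100 µM IBMX and 0.1% casein.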

[4] = Assessment of chemical stability (RP-HPLC normalized purity); format: physicochemical; conditions: 7 days, 40° C., Table 1
Outline: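 Purity after 7 days at 40° C is expressed relative to T=0 (set to 100) for each pH. Samples at 0.2 mg/ml, pH 4, 6, 7.5 or 9, analyzed by RP-HPLC with UV 220 nm on C8 (ammonium formate) or C18 (TFA) gradients.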

Row | Fibrillation pH 4.0 (Ac) [1] | Fibrillation pH 7.0 (His) [1] | Fibrillation pH 7.0 (Phos.) [1] | pEC50 [2] | pEC50 [3] | Normalized purity after 7 days, 40° C., pH 4 ([4]; pH 4, 0.2 mg/ml) | Normalized purity after 7 days, 40° C., pH 6 ([4]; pH 6, 0.2 mg/ml) | Normalized purity after 7 days, 40° C., pH 7.5 ([4]; pH 7.5, 0.2 mg/ml) | Normalized purity after 7 days, 40° C., pH 9 ([4]; pH 9, 0.2 mg/ml) | Structure (SMILES)
1 | FND | FND | FND | 9.80 | 9.55 | A (A = >90%) | A (A = >90%) | A (A = >90%) | C (C = <70%) | CC[C@H](C)[C@@H](C(=O)N[C@@H](CC(C)C)C(=O)N[C@@H](CO)C(=O)N[C@@H](CO)C(=O)N[C@H](C(=O)N[C@@H](CCC(=O)O)C(=O)N[C@H](C(=O)NCC(=O)N[C@@H](CO)C(=O)N[C@@H](CC(N)=O)C(=O)N[C@H](C(=O)N1C[C@H](O)C[C@H]1C(N)=O)[C@@H](C)O)C(C)C)[C@@H](C)O)N(C)C(=O)[C@H](C)NC(=O)CN(C)C(=O)[C@H](Cc1ccccc1)NC(=O)[C@H](CO)NC(=O)[C@H](CO)NC(=O)[C@H](CCCNC(=N)N)NC(=O)[C@H](CCCCN)NC(=O)[C@H](CC(C)C)NC(=O)[C@H](Cc1ccccc1)NC(=O)[C@H](Cc1c[nH]cn1)NC(=O)[C@H](C)NC(=O)[C@H](CC(C)C)NC(=O)[C@H](CCCNC(=N)N)NC(=O)[C@H](CCC(=O)O)NC(=O)[C@@H](NC(=O)[C@H](C)NC(=O)[C@@H]1CSSC[C@H](NC(=O)[C@H](CCCNC(=N)N)NC(=O)CC[C@H](NC(=O)CCCCCCCCCCCCCCCCCCC(=O)O)C(=O)O)C(=O)NCC(=O)N[C@@H]([C@@H](C)O)C(=O)N[C@@H](C)C(=O)N[C@@H]([C@@H](C)O)C(=O)N1)[C@@H](C)O [Compound 19, [19CD]-isoGlu-R-C( )-GTAT-C( )-ATERLAHFLKRSSF-Gly(Me)-A-Ile(Me)-LSSTEVGSNT-Hyp-NH2] ({C20 diacid-γGlu}-RCGTATCATERLAHFLKRSSF[Sar]A[NMeI]LSSTEVGSNT[Hyp]-NH2; disulfide 2-7)
2 | FD | FD | FD | 10.20 | 9.80 |  |  |  |  | CC[C@H](C)[C@@H](C(=O)N[C@@H](CC(C)C)C(=O)N[C@@H](CO)C(=O)N[C@@H](CO)C(=O)N[C@H](C(=O)N[C@@H](CC(=O)O)C(=O)N[C@H](C(=O)NCC(=O)N[C@@H](CO)C(=O)N[C@@H](CC(=O)O)C(=O)N[C@H](C(=O)N1CCC[C@H]1C(N)=O)[C@@H](C)O)C(C)C)[C@@H](C)O)N(C)C(=O)[C@H](C)NC(=O)CN(C)C(=O)[C@H](Cc1ccccc1)NC(=O)[C@H](CO)NC(=O)[C@H](CO)NC(=O)[C@H](CCCNC(=N)N)NC(=O)[C@H](Cc1c[nH]cn1)NC(=O)[C@H](CC(C)C)NC(=O)[C@H](Cc1ccccc1)NC(=O)[C@H](Cc1c[nH]cn1)NC(=O)[C@H](C)NC(=O)[C@H](CC(C)C)NC(=O)[C@H](CCCNC(=N)N)NC(=O)[C@H](CC(=O)O)NC(=O)[C@@H](NC(=O)[C@H](C)NC(=O)[C@@H]1CSSC[C@H](NC(=O)[C@H](CCCNC(=N)N)NC(=O)CC[C@H](NC(=O)CCCCCCCCCCCCCCCCCCC(=O)O)C(=O)O)C(=O)N2CCC[C@H]2C(=O)N[C@@H]([C@@H](C)O)C(=O)N[C@@H](C)C(=O)N[C@@H]([C@@H](C)O)C(=O)N1)[C@@H](C)O [Compound 27, [19CD]-isoGlu-R-C( )-PTAT-C( )-ATDRLAHFLHRSSF-Gly(Me)-A-Ile(Me)-LSSTDVGSDTP-NH2] ({C20 diacid-γGlu}-RCPTATCATDRLAHFLHRSSF[Sar]A[NMeI]LSSTDVGSDTP-NH2; disulfide 2-7)
3 | FND | FD | FD | 10.15 | 9.92 |  |  |  |  | CC[C@H](C)[C@@H](C(=O)N[C@@H](CC(C)C)C(=O)N[C@@H](CO)C(=O)N[C@@H](CO)C(=O)N[C@H](C(=O)N[C@@H](CCC(=O)O)C(=O)N[C@H](C(=O)NCC(=O)N[C@@H](CO)C(=O)N[C@@H](CO)C(=O)N[C@H](C(=O)N1C[C@H](O)C[C@H]1C(N)=O)[C@@H](C)O)C(C)C)[C@@H](C)O)N(C)C(=O)[C@H](C)NC(=O)CN(C)C(=O)[C@H](Cc1ccccc1)NC(=O)[C@H](CO)NC(=O)[C@H](CO)NC(=O)[C@H](CCCNC(=N)N)NC(=O)[C@H](Cc1c[nH]cn1)NC(=O)[C@H](CC(C)C)NC(=O)[C@H](Cc1ccccc1)NC(=O)[C@H](Cc1c[nH]cn1)NC(=O)[C@H](C)NC(=O)[C@H](CC(C)C)NC(=O)[C@H](CCCNC(=N)N)NC(=O)[C@H](CCC(=O)O)NC(=O)[C@@H](NC(=O)[C@H](C)NC(=O)[C@@H]1CSSC[C@H](NC(=O)[C@H](CCCNC(=N)N)NC(=O)CC[C@H](NC(=O)CCCCCCCCCCCCCCCCCCC(=O)O)C(=O)O)C(=O)NCC(=O)N[C@@H]([C@@H](C)O)C(=O)N[C@@H](C)C(=O)N[C@@H]([C@@H](C)O)C(=O)N1)[C@@H](C)O [Compound 30, [19CD]-isoGlu-R-C( )-GTAT-C( )-ATERLAHFLHRSSF-Gly(Me)-A-Ile(Me)-LSSTEVGSST-Hyp-NH2] ({C20 diacid-γGlu}-RCGTATCATERLAHFLHRSSF[Sar]A[NMeI]LSSTEVGSST[Hyp]-NH2; disulfide 2-7)
4 | FND | FD | FD | 9.77 | 9.64 |  |  |  |  | CC[C@H](C)[C@@H](C(=O)N[C@@H](CC(C)C)C(=O)N[C@@H](CO)C(=O)N[C@@H](CO)C(=O)N[C@H](C(=O)N[C@@H](CCC(=O)O)C(=O)N[C@H](C(=O)NCC(=O)N[C@@H](CO)C(=O)N[C@@H](Cc1ccccc1)C(=O)N[C@H](C(=O)N1C[C@H](O)C[C@H]1C(N)=O)[C@@H](C)O)C(C)C)[C@@H](C)O)N(C)C(=O)[C@H](C)NC(=O)CN(C)C(=O)[C@H](Cc1ccccc1)NC(=O)[C@H](CO)NC(=O)[C@H](CO)NC(=O)[C@H](CCCNC(=N)N)NC(=O)[C@H](CCC(N)=O)NC(=O)[C@H](CC(C)C)NC(=O)[C@H](Cc1ccccc1)NC(=O)[C@H](Cc1c[nH]cn1)NC(=O)[C@H](C)NC(=O)[C@H](CC(C)C)NC(=O)[C@H](CCCNC(=N)N)NC(=O)[C@H](CCC(=O)O)NC(=O)[C@@H](NC(=O)[C@H](C)NC(=O)[C@@H]1CSSC[C@H](NC(=O)[C@H](CCCNC(=N)N)NC(=O)CC[C@H](NC(=O)CCCCCCCCCCCCCCCCCCC(=O)O)C(=O)O)C(=O)NCC(=O)N[C@@H]([C@@H](C)O)C(=O)N[C@@H](C)C(=O)N[C@@H]([C@@H](C)O)C(=O)N1)[C@@H](C)O [Compound 32, [19CD]-isoGlu-R-C( )-GTAT-C( )-ATERLAHFLQRSSF-Gly(Me)-A-Ile(Me)-LSSTEVGSFT-Hyp-NH2] ({C20 diacid-γGlu}-RCGTATCATERLAHFLQRSSF[Sar]A[NMeI]LSSTEVGSFT[Hyp]-NH2; disulfide 2-7)
